Measured values reported in patent US20140357713A1, “ANTIMICROBIAL COMPOUNDS AND METHODS OF USE” (NexMed Holdings, Inc., priority 2012, published 2014).
Read-outs that look alike come from different tables or passages of the source.

Tests used:
Test in all cases: MIC assay with different strains, Example 35
Assay type in all cases: cell-based
[1] = system: Staphylococcus hominis (ATCC 27844)
Procedure: (§1) The minimum inhibitory concentration (MIC) is used to determine the lowest concentration of a test product claiming antimicrobial effects that will inhibit growth of a microorganism. Each microbial suspension was adjusted approximately 10^7 to 10^8 colony forming units (CFU) per mL and labeled as the stock suspension. The stock suspension was further diluted to 1:200 in Mueller Hinton broth to obtain a test sample having a concentration of […]. The test sample was then tested for MIC as described in M202.R02. After incubation, each tube was examined for turbidity, which indicated growth or no growth. For the tubes where the product rendered the media turbid, an aliquot of the media was streaked onto agar plates to confirm growth or lack of growth.

[2] = system: Escherichia coli ATCC 25922
Procedure: as §1

[3] = system: Enterococcus faecalis (ATCC 19433)
Procedure: as §1

[4] = system: Escherichia coli (ATCC 11229)
Procedure: as §1

[5] = system: Haemophilus influenza (ATCC 19418)
Procedure: as §1

[6] = system: Staphylococcus haemolyticus (ATCC 29970)
Procedure: as §1

[7] = system: Acinetobacter iwoffi (ATCC 15309)
Procedure: as §1

[8] = system: Pseudomonas aeruginosa (ATCC 9027)
Procedure: as §1

[9] = system: Klebsiella oxytoca (ATCC 43165)
Procedure: as §1

[10] = system: Staphylococcus epidermidis (ATCC 12228)
Procedure: as §1

[11] = system: Bacillus subtilis (ATCC 6633)
Procedure: as §1

[12] = system: Serratia marcescens (ATCC 14756)
Procedure: as §1

[13] = system: Acinetobacter baumannii (ATCC 19606)
Procedure: as §1

[14] = system: Klebsiella pneumonia (ATCC 11296)
Procedure: as §1

[15] = system: Staphylococcus aureus (MRSA) (ATCC 33592)
Procedure: as §1

## CCCCCCCCCCCCOC(=O)C(C)NC.Cl (stereo not drawn) [Nex-59, Dodecyl 2-(methylamino)propanoate hydrochloride]
[1]; Example 35
  MIC: 0.02%
[1]; Sample Concentration 0.01%
  Growth/no growth: Growth
[1]; Sample Concentration 0.02%
  Growth/no growth: No
[1]; Sample Concentration 0.04%
  Growth/no growth: No
[1]; Sample Concentration 0.08%
  Growth/no growth: No
[1]; Sample Concentration 0.16%
  Growth/no growth: No
[1]; Sample Concentration 0.32%
  Growth/no growth: No
[1]; Sample Concentration 0.63%
  Growth/no growth: No
[1]; Sample Concentration 1.25%
  Growth/no growth: No
[1]; Sample Concentration 2.5%
  Growth/no growth: No
[1]; Staphylococcus hominis, ATCC27844, Table 19 summary, read-out: MIC
  MIC: 200 µg/mL
[2]; Example 35
  MIC: 0.16%
[2]; Sample Concentration 0.01%
  Growth/no growth: Growth
[2]; Sample Concentration 0.02%
  Growth/no growth: Growth
[2]; Sample Concentration 0.04%
  Growth/no growth: Growth
[2]; Sample Concentration 0.08%
  Growth/no growth: Growth
[2]; Sample Concentration 0.16%
  Growth/no growth: No
[2]; Sample Concentration 0.32%
  Growth/no growth: No
[2]; Sample Concentration 0.63%
  Growth/no growth: No
[2]; Sample Concentration 1.25%
  Growth/no growth: No
[2]; Sample Concentration 2.5%
  Growth/no growth: No
[3]; Enterococcus faecalis, ATCC19433, Table 19 summary, read-out: MIC
  MIC: ≥ 100 µg/mL
[3]; Example 35
  MIC: ≦0.01%
[3]; Sample Concentration 0.01%
  Growth/no growth: No
[3]; Sample Concentration 0.02%
  Growth/no growth: No
[3]; Sample Concentration 0.04%
  Growth/no growth: No
[3]; Sample Concentration 0.08%
  Growth/no growth: No
[3]; Sample Concentration 0.16%
  Growth/no growth: No
[3]; Sample Concentration 0.32%
  Growth/no growth: No
[3]; Sample Concentration 0.63%
  Growth/no growth: No
[3]; Sample Concentration 1.25%
  Growth/no growth: No
[3]; Sample Concentration 2.5%
  Growth/no growth: No
[4]; Escherichia coli, ATCC11229, Table 19 summary, read-out: MIC
  MIC: 800 µg/mL
[4]; Example 35
  MIC: 0.08%
[4]; Sample Concentration 0.01%
  Growth/no growth: Growth
[4]; Sample Concentration 0.02%
  Growth/no growth: Growth
[4]; Sample Concentration 0.04%
  Growth/no growth: Growth
[5]; Example 35
  MIC: ≦0.01%
[5]; Haemophilus, ATCC19418
  MIC: ≥ 100 µg/mL
[5]; Sample Concentration 0.01%
  Growth/no growth: No
[5]; Sample Concentration 0.02%
  Growth/no growth: No
[5]; Sample Concentration 0.04%
  Growth/no growth: No
[5]; Sample Concentration 0.08%
  Growth/no growth: No
[5]; Sample Concentration 0.16%
  Growth/no growth: No
[5]; Sample Concentration 0.32%
  Growth/no growth: No
[5]; Sample Concentration 0.63%
  Growth/no growth: No
[5]; Sample Concentration 1.25%
  Growth/no growth: No
[5]; Sample Concentration 2.5%
  Growth/no growth: No
[6]; Example 35
  MIC: 0.02%
[6]; Sample Concentration 0.01%
  Growth/no growth: Growth
[6]; Sample Concentration 0.02%
  Growth/no growth: No
[6]; Sample Concentration 0.04%
  Growth/no growth: No
[6]; Sample Concentration 0.08%
  Growth/no growth: No
[6]; Sample Concentration 0.16%
  Growth/no growth: No
[6]; Sample Concentration 0.32%
  Growth/no growth: No
[6]; Sample Concentration 0.63%
  Growth/no growth: No
[6]; Sample Concentration 1.25%
  Growth/no growth: No
[6]; Sample Concentration 2.5%
  Growth/no growth: No
[6]; Staphylococcus haemolyticus, ATCC29970, Table 19 summary, read-out: MIC
  MIC: 200 µg/mL
[7]; Acinetobacter, ATCC15309, Table 19 summary, read-out: MIC
  MIC: 200 µg/mL
[7]; Example 35
  MIC: 0.02%
[7]; Sample Concentration 0.01%
  Growth/no growth: Growth
[8]; Example 35
  MIC: 0.16%
[8]; Pseudomonas aeruginosa, ATCC9027, Table 19 summary, read-out: MIC
  MIC: 1600 µg/mL
[8]; Sample Concentration 0.01%
  Growth/no growth: Growth
[8]; Sample Concentration 0.02%
  Growth/no growth: Growth
[8]; Sample Concentration 0.04%
  Growth/no growth: Growth
[8]; Sample Concentration 0.08%
  Growth/no growth: Growth
[9]; Example 35
  MIC: 0.63%
[9]; Klebsiella oxytoca, ATCC 43165 / ATCC 43615, Table 19 summary, strain printed ATCC 43615, read-out: MIC
  MIC: 6300 µg/mL
[9]; Sample Concentration 0.01%
  Growth/no growth: Growth
[9]; Sample Concentration 0.02%
  Growth/no growth: Growth
[9]; Sample Concentration 0.04%
  Growth/no growth: Growth
[9]; Sample Concentration 0.08%
  Growth/no growth: Growth
[9]; Sample Concentration 0.16%
  Growth/no growth: Growth
[9]; Sample Concentration 0.32%
  Growth/no growth: Growth
[9]; Sample Concentration 0.63%
  Growth/no growth: No
[9]; Sample Concentration 1.25%
  Growth/no growth: No
[9]; Sample Concentration 2.5%
  Growth/no growth: No
[10]; Example 35
  MIC: 0.02%
[10]; Sample Concentration 0.01%
  Growth/no growth: Growth
[10]; Sample Concentration 0.02%
  Growth/no growth: No
[10]; Sample Concentration 0.04%
  Growth/no growth: No
[10]; Sample Concentration 0.08%
  Growth/no growth: No
[10]; Sample Concentration 0.16%
  Growth/no growth: No
[10]; Sample Concentration 0.32%
  Growth/no growth: No
[10]; Sample Concentration 0.63%
  Growth/no growth: No
[10]; Sample Concentration 1.25%
  Growth/no growth: No
[10]; Sample Concentration 2.5%
  Growth/no growth: No
[10]; Staphylococcus epidermidis, ATCC12228, Table 19 summary, read-out: MIC
  MIC: 200 µg/mL
[11]; Bacillus subtilis, ATCC6633, Table 19 summary, read-out: MIC
  MIC: 400 µg/mL
[11]; Example 35
  MIC: 0.04%
[11]; Sample Concentration 0.01%
  Growth/no growth: Growth
[11]; Sample Concentration 0.02%
  Growth/no growth: Growth
[12]; Example 35
  MIC: >2.5%
[12]; Sample Concentration 0.01%
  Growth/no growth: Growth
[12]; Sample Concentration 0.02%
  Growth/no growth: Growth
[12]; Sample Concentration 0.04%
  Growth/no growth: Growth
[12]; Sample Concentration 0.08%
  Growth/no growth: Growth
[12]; Sample Concentration 0.16%
  Growth/no growth: Growth
[12]; Sample Concentration 0.32%
  Growth/no growth: Growth
[12]; Sample Concentration 0.63%
  Growth/no growth: Growth
[12]; Sample Concentration 1.25%
  Growth/no growth: Growth
[12]; Sample Concentration 2.5%
  Growth/no growth: Growth
[12]; Serratia marcescens, ATCC14756, Table 19 summary, read-out: MIC
  MIC: > 25000 µg/mL
[13]; Acinetobacter baumannii, ATCC19606, Table 19 summary, read-out: MIC
  MIC: 800 µg/mL
[13]; Example 35
  MIC: 0.08%
[13]; Sample Concentration 0.01%
  Growth/no growth: Growth
[13]; Sample Concentration 0.02%
  Growth/no growth: Growth
[13]; Sample Concentration 0.04%
  Growth/no growth: Growth
[14]; Example 35
  MIC: 0.08%
[14]; Klebsiella pneumoniae, ATCC11296, Table 19 summary, read-out: MIC
  MIC: 800 µg/mL
[14]; Sample Concentration 0.01%
  Growth/no growth: Growth
[14]; Sample Concentration 0.02%
  Growth/no growth: Growth
[14]; Sample Concentration 0.04%
  Growth/no growth: Growth
[14]; Sample Concentration 0.08%
  Growth/no growth: No
[14]; Sample Concentration 0.16%
  Growth/no growth: No
[14]; Sample Concentration 0.32%
  Growth/no growth: No
[14]; Sample Concentration 0.63%
  Growth/no growth: No
[14]; Sample Concentration 1.25%
  Growth/no growth: No
[14]; Sample Concentration 2.5%
  Growth/no growth: No
[15]; Example 35
  MIC: 0.02%
[15]; Sample Concentration 0.01%
  Growth/no growth: Growth
[15]; Sample Concentration 0.02%
  Growth/no growth: No
[15]; Sample Concentration 0.04%
  Growth/no growth: No
[15]; Sample Concentration 0.08%
  Growth/no growth: No
[15]; Sample Concentration 0.16%
  Growth/no growth: No
[15]; Sample Concentration 0.32%
  Growth/no growth: No
[15]; Sample Concentration 0.63%
  Growth/no growth: No
[15]; Sample Concentration 1.25%
  Growth/no growth: No
[15]; Sample Concentration 2.5%
  Growth/no growth: No
[15]; Staphylococcus aureus, Table 19 summary, read-out: MIC
  MIC: 200 µg/mL
